Patent publication US3978071A, “Substituted phenylalkanoic acids and derivatives” (Yoshitomi Pharmaceutical Industries, Ltd., priority 1973, dated 1976)

Legend:
[1] = test system: o-phenyl-p-benzoquinone induced stretch symptoms; assay: Analgesic Action (Phenylquinone Method); assay type: in vivo, dd-strain male mice; conditions: Mus musculus, po, mice, 1 hour before 0.02% o-phenyl-p-benzoquinone i.p., dose required for 50% inhibition of stretch symptoms (30 minutes)
Protocol: According to the method of Hendershot et al. (J. Pharmacol. Exptl. Therap., 125, 237 (1959)), to one group of 6 dd-strain male mice each weighing about 20 g a test solution containing a test compound was orally administered and 1 hour later 0.2 ml/20 g of body weight of 0.02% o-phenyl-p-benzoquinone solution was intraperitoneally injected. The frequency of stretch symptoms thus induced was measured for 30 minutes, and compared with that of a control group, and the inhibition percentage (effect) was calculated. The ED50 the dose required for 50% inhibition, was calculated from the dose-response curve.

[2] = test system: carrageenin edema of the hind paw; assay: Anti-inflammatory Action, Carrageenin Edema Method; assay type: in vivo, Donryu-strain male rats; conditions: Rattus norvegicus, po, rats, 1 hour before 1% carrageenin s.c.; paw bulk 2 hours after phlogogen; dose required for 50% inhibition
Protocol: i. Carrageenin Edema Method
According to the method of Winter et al. (Proc. Soc. Exptl. Biol. Med., 111, 544 (1962)), to one group of 5 Donryu-strain male rats each weighing about 130 g a test solution containing a test compound was administered orally. One hour later 0.05 ml of 1% carrageenin solution as phlogogenic substance was subcutaneously injected to the paw of the hind leg. And 2 hours after the administration of phlogogen the bulk of the paw was measured in order to obtain the increment percentage over that before administration. The ratio of bulk increment between a control group and a test group was calculated as inhibition percentage. The ED50, the dose required for 50% inhibition, was calculated from the dose-response curve.

ultraviolet erythema = assay: Anti-inflammatory Action, Ultraviolet Erythema Method; assay type: in vivo; conditions: Cavia porcellus, light or radiation study, po, guinea pigs, equal amounts 1 hour before and after irradiation; total dose required for 50% efficacy rate
Text: ii. Ultraviolet Erythema Method:
Using guinea pigs weighing 250-450 g, a rubber plate with 3 holes of 7 mm in diameter was fitted to the abdomen, hair of which had been removed in advance, and light was given by a mercury lamp (300 W) at the distance of 15 cm for 150 seconds. Two hours later the degree of erythema formation was marked according to the method of Winder et al. (Arch. Intern. Pharmacodyn., 116, 261 (1958); 1 for distinct erythema, 0.5 for indistinct erythema and 0 for no erythema) and the efficacy rate was calculated, based on the criterion that 1.5 or less of total marks be effective. Equal amounts of the test solution were orally given 1 hour before and after the irradiation, respectively. The ED50, the total dose required for 50% efficacy rate, was calculated from the dose-response curve.

Compound | ED50 [1] | ED50 [2] | ED50 (ultraviolet erythema)
CC(C(=O)O)c1ccc(-c2cn3ccccc3n2)cc1 (stereo not drawn) [A, 2-[4-(imidazo[1,2-a]pyridin-2-yl)phenyl]propionic acid] | 0.1 mg/kg | 8 mg/kg | 6 mg/kg
CC(C(=O)O)c1ccc(-c2cn3ccccc3n2)c(Cl)c1 (stereo not drawn) [B, 2-[3-chloro-4-(imidazo[1,2-a]pyridin-2-yl)phenyl]propionic acid] | 0.2 mg/kg | 25 mg/kg | 1 mg/kg
CC(C(=O)O)c1ccc(-c2cn3ccccc3n2)c(F)c1 (stereo not drawn) [C, 2-[3-fluoro-4-(imidazo[1,2-a]pyridin-2-yl)phenyl]propionic acid] | 0.1 mg/kg | 25 mg/kg | 2.5 mg/kg
CC(C(=O)O)c1ccc(-c2cn3ccsc3n2)cc1 (stereo not drawn) [D, 2-[4-(imidazo[2,1-b]thiazol-6-yl)phenyl]propionic acid] | 13 mg/kg | 50 mg/kg | 2.5 mg/kg
CC(C(=O)O)c1ccc(-c2cn3ccsc3n2)c(Cl)c1 (stereo not drawn) [E, 2-[3-chloro-4-(imidazo[2,1-b]thiazol-6-yl)phenyl]propionic acid] | 0.5 to 1 mg/kg | 100 mg/kg | 5 mg/kg
